# Test results published in paper PMC12498190, “A Photocaged N‐Phosphonopiperidinone as a Selective Photo‐Cleavable DPP8/9 Inhibitor” (Chembiochem, 2025).
# Molecular target: T1, PREP (Homo sapiens, UniProt P48147)
# T1 construct: endogenous in cells; host or cells: HEK293 (Cytion, Germany, 300192)
# T1 sequence (P48147 1-710): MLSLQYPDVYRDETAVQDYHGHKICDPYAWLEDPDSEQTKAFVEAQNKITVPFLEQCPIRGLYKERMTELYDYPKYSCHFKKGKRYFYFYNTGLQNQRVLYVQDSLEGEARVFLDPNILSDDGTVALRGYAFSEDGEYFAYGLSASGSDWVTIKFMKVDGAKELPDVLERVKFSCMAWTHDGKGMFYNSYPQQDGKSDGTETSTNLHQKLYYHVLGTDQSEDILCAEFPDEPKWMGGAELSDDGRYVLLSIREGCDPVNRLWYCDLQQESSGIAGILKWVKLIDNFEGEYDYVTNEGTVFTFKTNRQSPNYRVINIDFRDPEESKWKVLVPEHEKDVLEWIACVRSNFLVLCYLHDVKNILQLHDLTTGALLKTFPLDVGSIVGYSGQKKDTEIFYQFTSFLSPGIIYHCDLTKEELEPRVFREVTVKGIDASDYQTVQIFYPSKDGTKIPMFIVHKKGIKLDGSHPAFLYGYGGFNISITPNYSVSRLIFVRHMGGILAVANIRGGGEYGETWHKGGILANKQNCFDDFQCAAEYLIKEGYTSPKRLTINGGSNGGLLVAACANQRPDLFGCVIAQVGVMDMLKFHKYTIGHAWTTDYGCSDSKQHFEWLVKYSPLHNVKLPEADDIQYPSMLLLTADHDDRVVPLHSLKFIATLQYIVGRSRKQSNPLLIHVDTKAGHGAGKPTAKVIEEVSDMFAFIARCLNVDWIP
# Test: In situ competitive ABPP in HEK293 cell culture, 70 kDa band
# Format: cell-based
# Settings: pre-incubation 1 h with 20 µM or 10 µM (method), 10 µM 2 for 1 h, light 5 min
# Experimental: Figure 2 Competitive ABPP with photo‐cleavable inhibitor 5 in HEK293 cells. A) Schematic overview of a competitive ABPP experiment. A proteome is pre‐incubated with a competitor, followed by a labeling reaction with an activity‐based probe (ABP). In the case of a photocaged inhibitor, the active compound can be released via irradiation. Target proteins of the competitor cannot be bound by the ABP, resulting in an absence of the respective protein band in‐gel analysis. Created in BioRender. Najdzion, M. (2025) https://BioRender.com/84zn8cb B) Gel‐based competitive ABPP experiment in HEK293 cell lysates with the broadband serine hydrolase ABP ≡FP or the DPP8/9‐directed ABP 2 and the photocaged inhibitor 5, at the indicated concentrations, after or without prior irradiation with green light for 5 min. The corresponding pre‐incubation time for 5 was 30 min. C) Corresponding in situ competitive ABPP experiment in HEK293 cell culture, again with 10 µM 2 for 1 h. […] HEK293 cells were irradiated with a green LED lamp in the presence of 0.5% DMSO for 5 min (‘light’), and cell viability was measured after 24 h. […] For both compounds, cell viability was measured under ‘dark’ (not irradiated) and ‘light’ (irradiated for 5 min with a green LED lamp after the addition of the inhibitor) conditions. […]
compound,measurement,value
CCCCCc1ccc(SCCP(=O)(OCC)N2CCC[C@H](NC(=O)OCC3=C4C(C)=CC(C)=[N+]4[B-](C)(C)n4c(C)cc(C)c43)C2=O)cc1 (stereo partly shown) [Compound 5],Competition of PREP labeling in live cells (in words),partially competed
